A word on the MIC: it is the lowest concentration found to suppress growth. Usually MIC90 stands for the lowest concentration that inhibits either 90% of growth or 90% of the strains tested, depending on the study. As a reminder, the IC90 is the concentration needed for an effect of 90%.

From ChEMBL document CHEMBL6153171, “Redefining Antifungal Treatment: The Innovation of Metal-Based Compounds” (2025) come the findings set out here.

Values after ≈ are worked out from the molar mass of the structure shown.

Holding throughout (type): functional
Experiment [1] relates to Trichophyton interdigitale. Briefly: Antifungal activity against Trichophyton interdigitale.
Experiment [2] deals with Trichophyton rubrum. The experiment in a line: Antifungal activity against Trichophyton rubrum assessed as fungal growth inhibition incubated for 48 hrs by microplate reader assay.
For experiment [3], the system named is Trichophyton mentagrophytes. Briefly: Antifungal activity against Trichophyton mentagrophytes.
In experiment [4] the test system is Trichophyton tonsurans. The experiment in a line: Antifungal activity against Trichophyton tonsurans.
The test system of experiment [5] is Aspergillus flavus. The experiment in a line: Antifungal activity against Aspergillus flavus assessed as reduction in fungal growth incubated for 24 hrs by two-fold serial dilution method. Set-up: scale not given: the % may be the effect or the level left.
In experiment [6] the test system is Nakaseomyces glabratus. The experiment in a line: Antifungal activity against Candida glabrata assessed as reduction in fungal growth. Set-up: concentration or dose not given beside the values.
Experiment [7] deals with Candida albicans. The experiment in a line: Antifungal activity against Candida albicans assessed as fungal growth inhibition.
Experiment [8] has as its system Aspergillus flavus. The experiment in a line: Antifungal activity against Aspergillus flavus assessed as fungal growth inhibition.
The subject of experiment [9] is Candida albicans. Briefly: Antifungal activity against Candida albicans assessed as fungal growth inhibition at 5 ug/ml incubated for 24 hrs by CLSI protocol based microbroth dilution assay relative to control. More on the design: scale not given: the % may be the effect or the level left. The note with it: dose 5 µg/ml. (In general: Dilution methods test growth across graded concentrations, often in twofold steps.)

In experiment [10] the test system is Candida albicans. The experiment in a line: Antifungal activity against Candida albicans ATCC 2091 assessed as reduction in fungal growth.
The subject of experiment [11] is Trichophyton violaceum. The experiment in a line: Antifungal activity against Trichophyton violaceum.
Experiment [12] relates to Epidermophyton floccosum. Briefly: Antifungal activity against Epidermophyton floccosum.
Experiment [13] has as its system Cryptococcus neoformans. Briefly: Antifungal activity against Cryptococcus neoformans H99 assessed as reduction in fungal growth incubated for 48 hrs by liquid based microdilution method.
Experiment [14] relates to Candida albicans. Briefly: Antifungal activity against Candida albicans.
Experiment [15] deals with Aspergillus flavus. Briefly: Antifungal activity against Aspergillus flavus.
Experiment [16] relates to Aspergillus flavus. Briefly: Antifungal activity against Aspergillus flavus ATCC 16870 assessed as inhibition of growth incubated for 48 hrs by two-fold serial dilution method.
Experiment [17] has as its system Candida albicans. Briefly: Antifungal activity against Candida albicans SC5314 assessed as reduction in fungal growth incubated for 72 hrs by broth micro-dilution method.
The subject of experiment [18] is Cryptococcus neoformans. Briefly: Antifungal activity against Cryptococcus neoformans ATCC 34877 assessed as reduction in fungal growth incubated for 72 hrs by liquid based microdilution method.
Experiment [19] can be described thus: Antifungal activity against Cryptococcus gattii VGI ATCC LMM 818 assessed as reduction in fungal growth incubated for 72 hrs by liquid based microdilution method.
Experiment [20] relates to Cryptococcus neoformans. Briefly: Antifungal activity against Cryptococcus neoformans ATCC 34877 assessed as reduction in fungal growth incubated for 48 hrs by liquid based microdilution method.
The test system of experiment [21] is Candida tropicalis. Briefly: Antifungal activity against Candida tropicalis ATCC 1369 assessed as inhibition of fungal growth by CLSI protocol based microdilution method.
Experiment [22] concerns Candida tropicalis. The experiment in a line: Anti-fungal activity against Candida tropicalis assessed as inhibition of fungal growth.
In experiment [23] the test system is Candida albicans. Briefly: Antifungal activity against Candida albicans ATCC 10231 assessed as growth inhibition measured after 48 hrs by CLSI based method.
Experiment [24] concerns Candida albicans. The experiment in a line: Antifungal activity against Candida albicans assessed as reduction in microbial growth.
Experiment [25] relates to Microsporum canis. Briefly: Antifungal activity against Microsporum canis assessed as inhibition of fungal growth. Set-up: scale not given: the % may be the effect or the level left.
For experiment [26], the system named is Candida albicans. The experiment in a line: Antifungal activity against Candida albicans ATCC 10231 assessed as fungal growth inhibition incubated for 24 hrs by CLSI protocol based microbroth dilution assay.
Experiment [27] can be described thus: Antifungal activity against Cryptococcus gattii VGI ATCC 14116 assessed as reduction in fungal growth incubated for 72 hrs by liquid based microdilution method.
Experiment [28] deals with Candida albicans. Briefly: Antifungal activity against fluconazole-resistant Candida albicans ATCC 10213 assessed as inhibition of fungal growth incubated for 48 hrs by liquid medium dilution method.
Experiment [29] relates to Candida albicans. The experiment in a line: Antifungal activity against fluconazole-resistant Candida albicans MFBF 11100 assessed as inhibition of fungal growth incubated for 48 hrs by liquid medium dilution method.

For `O=C(O)c1c(O)c(F)c(F)c(F)c1F`, the minimal inhibitory concentration (MIC) in [1], in experiment [2], in experiment [3] and in [4] was 25 µg/mL (≈ 119 µM) in each case.

For `CCCN(CCC)C(=S)NC(=O)c1ccc(Br)o1`, the Activity is 52% in experiment [5] and 42% in experiment [6].

Regarding `O=c1cc(O)c2c(=O)[nH]c3ccccc3c2o1`, the MIC in [7] worked out at 233 µM (≈ 53.4 µg/mL); in experiment [8] it was 226 µM (≈ 51.7 µg/mL).

For `CCCN(CCC)C(=S)NC(=O)c1cccs1`, the Activity in experiment [9] is on record as 50%.

On to `Oc1ccccc1/C=N/c1ccc(Cn2cncn2)cc1`, for which the MIC in [10] was determined as 12.5 µg/mL (≈ 44.9 µM).

For `CCN(C(=S)NC(=O)c1ccc(Br)o1)C(C)C`, in [5], the Activity was found to be 50%.

Turning to `NS(=O)(=O)c1ccc(/N=C/c2cc(Cl)ccc2O)cc1`, the Activity in experiment [6] is recorded as 47%.

As for `CCN(C(=S)NC(=O)c1ccc(C)s1)C(C)C`, the Activity is 57% in experiment [5] and 62% in [6].

Take `Cc1ccc(S(=O)(=O)Nc2ncccn2)cc1`: the Activity in experiment [6] was 53%.

As to `c1ccc(-c2ccc(-c3ccccn3)nc2)cc1`, the MIC in experiment [11] and in [12] was 26.9 µM (≈ 6.25 µg/mL) throughout.

Regarding `CCN(C(=S)NC(=O)c1cccs1)C(C)C`, the Activity is 53% in experiment [9] and 43% in experiment [6].

As to `CCNC(=S)N/N=C(\N)c1ccccn1`, the MIC90 in [13] is 13.1 µM (≈ 2.92 µg/mL).

Take `Oc1ccccc1/N=N/c1ccc(O)c2ccccc12`: the minimal inhibitory concentration (MIC) in [14] is 50 µg/mL (≈ 189 µM); in experiment [15], 6.25 µg/mL (≈ 23.6 µM); in experiment [16], 6.25 µg/mL (≈ 23.6 µM); in experiment [17], 6.25 µg/mL (≈ 23.6 µM).

`CNCCC/N=C/c1c(O)ccc2c(C)cc(=O)oc12`: in experiment [10], the minimum inhibitory concentration (MIC) was 12.5 µg/mL (≈ 45.6 µM).

With `CNC(=S)N/N=C(\N)c1ccccn1`, the values for the MIC90 in experiment [18], in experiment [19] and in experiment [20] were 52 µM (≈ 10.9 µg/mL), 52 µM (≈ 10.9 µg/mL) and 2.01 µM (≈ 0.42 µg/mL), respectively.

As to `Cc1ccc(-c2ccc(-c3ccccn3)nc2)cc1`, the MIC in experiment [21] was at most 20.4 µM; in [22], at most 12.7 µM.

For the molecule `O=C1N[C@@H](Cc2ccc(/N=C/c3ccccc3O)cc2)CO1`, in experiment [10], the MIC was 12.5 µg/mL (≈ 42.2 µM).

With `C/C(=N\NC(=S)Nc1ccc([N+](=O)[O-])cc1)c1ccccn1`, the MIC in experiment [23] came out at 10.7 µM (≈ 3.37 µg/mL).

Take `O=C(O)c1cc(F)c(F)c(F)c1O`: in experiment [24], the MIC was found to be 50 µg/mL.

As for `CCCN(CCC)C(=S)NC(=O)c1ccc(C)s1`, the Activity in [25] worked out at 63%.

Consider `C/C(=N\NC(=S)Nc1ccc(I)cc1)c1ccccn1`, for which the MIC in [23] was determined as 10.7 µM (≈ 4.24 µg/mL); in experiment [26], 6.2 µM (≈ 2.46 µg/mL).

For `NC(=S)N/N=C(\N)c1ccccn1`, the MIC90 is 26.3 µM (≈ 5.13 µg/mL) in experiment [27], 26.3 µM (≈ 5.13 µg/mL) in experiment [18], 52.5 µM (≈ 10.3 µg/mL) in experiment [19] and 13.1 µM (≈ 2.55 µg/mL) in experiment [13].

Turning to `COc1ccc(/C=N/NC(=O)c2cccnc2)c(O)c1`, the 90% effect concentration (IC90) came out at 180 nM in experiment [28] and 100 nM in experiment [29].
